Patent US20220119354A1, “DIAMINO-SUBSTITUTED PYRIDINES AND PYRIMIDINES AS HERBICIDES” (FMC Corporation, priority 2019, published 2022)

Tests used:
Assay type in all cases: in vivo
[1] = test system: pigweed (Amaranthus retroflexus); test: Test A preemergence, pigweed; conditions: 0 to 100 scale, 0 is no effect, 100 is complete control
Summary of the method: (§1)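 Plants grown in a loam soil and sand blend were treated either preemergence by directed soil spray or postemergence when 2 to 10 cm tall (one- to two-leaf stage). Formulation: non-phytotoxic solvent mixture with surfactant. Greenhouse hold ~10 d, then visual injury assessment on a 0–100 scale.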

[2] = test system: ducksalad (Heteranthera limosa); test: Test B flooded paddy test, ducksalad; conditions: Flood, 250 g ai/ha, applied to paddy water, 2-leaf stage, visual evaluation after 13 to 15 d
Summary of the method: (§2)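 Visual injury scores run from 0 (no effect) to 100 (complete control), assigned by comparison with controls 13 to 15 d after treatment. Treatment went into floodwater standing 3 cm over the soil of pots holding 2-leaf plants.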

[3] = test system: pigweed (Amaranthus retroflexus); test: Test A postemergence, pigweed; conditions: 0 to 100 scale; for Plant response rating, Pigweed: 0 no effect, 100 complete control
Summary of the method: as §1

corn (Zea mays) = test: Test A postemergence, corn; conditions: 0 to 100 scale; for Plant response rating, Corn: 0 no effect, 100 complete control
Summary of the method: as §1

[4] = test system: sedge, umbrella (small-flower umbrella sedge, Cyperus difformis); test: Test B flooded paddy test, umbrella sedge; conditions: Flood, 250 g ai/ha, applied to paddy water, 2-leaf stage, visual evaluation after 13 to 15 d
Summary of the method: as §2

[5] = test system: ragweed (common ragweed, Ambrosia elatior); test: Test A postemergence, ragweed; conditions: 0 to 100 scale; for Plant response rating, Ragweed: 0 no effect, 100 complete control
Summary of the method: as §1

[6] = test system: ryegrass, Italian (Lolium multiflorum); test: Test A postemergence, Italian ryegrass; conditions: 0 to 100 scale; for Plant response rating, Ryegrass, Italian: 0 no effect, 100 complete control
Summary of the method: as §1

rice (Oryza sativa) = test: Test B flooded paddy test, rice; conditions: Flood, 250 g ai/ha, applied to paddy water, 2-leaf stage, visual evaluation after 13 to 15 d
Summary of the method: as §2

[7] = test system: barnyardgrass (Echinochloa crus-galli); test: Test B flooded paddy test, barnyardgrass; conditions: Flood, 250 g ai/ha, applied to paddy water, 2-leaf stage, visual evaluation after 13 to 15 d
Summary of the method: as §2

[8] = test system: ryegrass, Italian (Lolium multiflorum); test: Test A preemergence, Italian ryegrass; conditions: 0 to 100 scale, 0 is no effect, 100 is complete control
Summary of the method: as §1

[9] = test system: galium (catchweed bedstraw, Galium aparine); test: Test A postemergence, galium; conditions: 0 to 100 scale; for Plant response rating, Galium: 0 no effect, 100 complete control
Summary of the method: as §1

kochia (Kochia scoparia) [10] = test: Test A preemergence, kochia; conditions: 0 to 100 scale, 0 is no effect, 100 is complete control
Summary of the method: as §1

[11] = test system: barnyardgrass (Echinochloa crus-galli); test: Test A preemergence, barnyardgrass; conditions: 0 to 100 scale, 0 is no effect, 100 is complete control
Summary of the method: as §1

[12] = test system: ragweed (common ragweed, Ambrosia elatior); test: Test A preemergence, ragweed; conditions: 0 to 100 scale, 0 is no effect, 100 is complete control
Summary of the method: as §1

[13] = test system: barnyardgrass (Echinochloa crus-galli); test: Test A postemergence, barnyardgrass; conditions: 0 to 100 scale; for Plant response rating, Barnyardgrass: 0 no effect, 100 complete control
Summary of the method: as §1

[14] = test system: foxtail, giant (Setaria faberii); test: Test A postemergence, giant foxtail; conditions: 0 to 100 scale; for Plant response rating, Foxtail, Giant: 0 no effect, 100 complete control
Summary of the method: as §1

[15] = test system: wheat (Triticum aestivum); test: Test A postemergence, wheat; conditions: 0 to 100 scale; for Plant response rating, Wheat: 0 no effect, 100 complete control
Summary of the method: as §1

[16] = test system: blackgrass (Alopecurus myosuroides); test: Test A postemergence, blackgrass; conditions: 0 to 100 scale; for Plant response rating, Blackgrass: 0 no effect, 100 complete control
Summary of the method: as §1

[17] = test system: foxtail, giant (Setaria faberii); test: Test A preemergence, giant foxtail; conditions: 0 to 100 scale, 0 is no effect, 100 is complete control
Summary of the method: as §1

kochia (Kochia scoparia) [18] = test: Test A postemergence, kochia; conditions: 0 to 100 scale; for Plant response rating, Kochia: 0 no effect, 100 complete control
Summary of the method: as §1

[19] = 500 g ai/ha, 0 is no effect, 100 is complete control

| SMILES | Pigweed plant response rating ([1]; 125 g ai/ha) | Pigweed plant response rating ([1]; 500 g ai/ha) | Plant response rating, Ducksalad (0 to 100 scale, 0 is no effect, 100 is complete control) [2] | Plant response rating, Pigweed ([3]; 125 g ai/ha) | Plant response rating, Corn (corn (Zea mays); 125 g ai/ha) | Plant response rating, Sedge, Umbrella (0 to 100 scale, 0 is no effect, 100 is complete control) [4] | Plant response rating, Ragweed ([5]; 125 g ai/ha) | Plant response rating, Ryegrass, Italian ([6]; 125 g ai/ha) | Plant response rating, Rice (0 to 100 scale, 0 is no effect, 100 is complete control) (rice (Oryza sativa)) | Plant response rating, Barnyardgrass (0 to 100 scale, 0 is no effect, 100 is complete control) [7] | Ryegrass, Italian plant response rating ([8]; 125 g ai/ha) | Ryegrass, Italian plant response rating ([8]; 500 g ai/ha) | Plant response rating, Galium ([9]; 125 g ai/ha) | Kochia plant response rating (kochia (Kochia scoparia) [10]; 125 g ai/ha) | Kochia plant response rating (kochia (Kochia scoparia) [10]; 500 g ai/ha) | Barnyardgrass plant response rating ([11]; 125 g ai/ha) | Barnyardgrass plant response rating ([11]; 500 g ai/ha) | Ragweed plant response rating ([12]; 125 g ai/ha) | Ragweed plant response rating ([12]; 500 g ai/ha) | Plant response rating, Barnyardgrass ([13]; 125 g ai/ha) | other results |
| --- | --- | --- | --- | --- | --- | --- | --- | --- | --- | --- | --- | --- | --- | --- | --- | --- | --- | --- | --- | --- | --- |
| CCC(Nc1ncc(C(F)(F)F)c(N)n1)c1coc2ccccc12 (racemic) [Compound 53] | 80 | 90 | 0 | 60 | 0 | 0 | 20 | 20 | 0 | 0 | 20 | 20 | 30 | 60 | 90 | 0 | 80 | 100 | 90 | 0 | Pigweed plant response rating [3, 19]: 100; Corn plant response rating (corn (Zea mays); [19]): 0; Ragweed plant response rating [5, 19]: 80; Ryegrass, Italian plant response rating [6, 19]: 60; Galium plant response rating [9, 19]: 80; Barnyardgrass plant response rating [13, 19]: 30; Plant response rating, Foxtail, Giant ([14]; 125 g ai/ha): 10; Foxtail, Giant plant response rating [14, 19]: 30; Plant response rating, Wheat ([15]; 125 g ai/ha): 0; Wheat plant response rating [15, 19]: 0; Plant response rating, Blackgrass ([16]; 125 g ai/ha): 0; Blackgrass plant response rating [16, 19]: 0; Foxtail, Giant plant response rating ([17]; 125 g ai/ha): 90; Foxtail, Giant plant response rating ([17]; 500 g ai/ha): 90; Plant response rating, Kochia (kochia (Kochia scoparia) [18]; 125 g ai/ha): 50; Kochia plant response rating (kochia (Kochia scoparia) [18]; [19]): 90 |
| CC(Nc1nc(N)c(C(F)(F)F)c(C(F)(F)F)n1)c1cc2ccccc2o1 (racemic) [Compound 58] | 0 | 0 | 0 | 20 | 0 | 0 | 0 | 0 | 0 | 0 | 0 | 0 | 0 | 0 | 0 | 0 | 0 | 0 | 0 | 0 | Plant response rating, Pigweed ([3]; 500 g ai/ha): 60; Plant response rating, Corn (corn (Zea mays); 500 g ai/ha): 0; Plant response rating, Ragweed ([5]; 500 g ai/ha): 20; Plant response rating, Ryegrass, Italian ([6]; 500 g ai/ha): 0; Plant response rating, Galium ([9]; 500 g ai/ha): 20; Plant response rating, Barnyardgrass ([13]; 500 g ai/ha): 50; Plant response rating, Foxtail, Giant ([14]; 125 g ai/ha): 0; Plant response rating, Foxtail, Giant ([14]; 500 g ai/ha): 10; Plant response rating, Wheat ([15]; 125 g ai/ha): 0; Plant response rating, Wheat ([15]; 500 g ai/ha): 0; Plant response rating, Blackgrass ([16]; 125 g ai/ha): 0; Plant response rating, Blackgrass ([16]; 500 g ai/ha): 0; Foxtail, Giant plant response rating ([17]; 125 g ai/ha): 0; Foxtail, Giant plant response rating ([17]; 500 g ai/ha): 0; Plant response rating, Kochia (kochia (Kochia scoparia) [18]; 125 g ai/ha): 30; Plant response rating, Kochia (kochia (Kochia scoparia) [18]; 500 g ai/ha): 80 |
| CC(Nc1nc(N)c(C(F)(F)F)c(C(F)(F)F)n1)C1Cc2ccccc2C1 (racemic) [Compound 69] | 0 | 70 | 0 | 20 | 20 | 0 | 0 | 0 | 0 | 0 | 0 | 0 | 0 | 0 | 70 | 0 | 0 | 0 | 70 | 0 | Plant response rating, Pigweed ([3]; 500 g ai/ha): 80; Plant response rating, Corn (corn (Zea mays); 500 g ai/ha): 0; Plant response rating, Ragweed ([5]; 500 g ai/ha): 0; Plant response rating, Ryegrass, Italian ([6]; 500 g ai/ha): 0; Plant response rating, Galium ([9]; 500 g ai/ha): 0; Plant response rating, Barnyardgrass ([13]; 500 g ai/ha): 0; Plant response rating, Foxtail, Giant ([14]; 125 g ai/ha): 0; Plant response rating, Foxtail, Giant ([14]; 500 g ai/ha): 0; Plant response rating, Wheat ([15]; 125 g ai/ha): 0; Plant response rating, Wheat ([15]; 500 g ai/ha): 0; Plant response rating, Blackgrass ([16]; 125 g ai/ha): 0; Plant response rating, Blackgrass ([16]; 500 g ai/ha): 30; Foxtail, Giant plant response rating ([17]; 125 g ai/ha): 0; Foxtail, Giant plant response rating ([17]; 500 g ai/ha): 0; Plant response rating, Kochia (kochia (Kochia scoparia) [18]; 125 g ai/ha): 30; Plant response rating, Kochia (kochia (Kochia scoparia) [18]; 500 g ai/ha): 80 |
